This note sets out measurements from patent publication US11208387B2, “Macrocyclic broad spectrum antibiotics” (Genentech, Inc., priority 2019, dated 2021).

The test system of experiment [1] is Klebsiella pneumoniae ATCC 700603. The experiment can be described thus: Serum MIC, broth micro-dilution. Type of experiment: cell-based. To be noted: Klebsiella pneumoniae, read-out: K pneumoniae 700603 Serum MIC. An outline of the steps: (§1)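 Plates held at 35 °C for 22 h after adding bacteria to a final OD600 of 0.0005. Medium was a 1:1 mix of mouse serum and cation-adjusted Mueller Hinton II broth. Ten two-fold compound dilutions began at 64, 4, 0.5 or 0.13 μg/mL, per CLSI microdilution.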

Experiment [2] concerns Acinetobacter baumannii ATCC 17978. In words: Serum MIC, broth micro-dilution. Type of experiment: cell-based. To be noted: Acinetobacter baumannii. An outline of the steps: as §1
On the technique in general: Dilution methods test growth across graded concentrations, often in twofold steps.

Experiment [3] deals with Escherichia coli strain ATCC 25922. In words: Serum MIC, broth micro-dilution. Type of experiment: cell-based. The note with it: Escherichia coli, read-out: E. coli 25922 Serum MIC. The procedure, abridged:
as §1

Experiment [4] relates to Pseudomonas aeruginosa PA01. In words: Serum MIC, broth micro-dilution. The experiment is classed as cell-based. The note with it: Pseudomonas aeruginosa, read-out: P. aeruginosa 01 Serum MIC. The procedure, abridged: as §1
Experiment [5] concerns isolated liver mitochondria. The experiment can be described thus: Mitochondrial oxygen consumption rate (OCR) assay. The note with it: isolated rat liver mitochondria, state 3 (S3) respiration, glutamate/malate; Table 3. The experiment is classed as biochemical, Sprague-Dawley rats. An excerpt:
Male Sprague-Dawley rats (8-10 weeks of age) were euthanized with an overdose of carbon dioxide. The liver was rapidly excised and placed in ice-cold phosphate-buffered saline (PBS) before isolation process. Mitochondria were isolated using the MitoCheck® Mitochondrial Isolation Kit (Cayman Chemical #701010, Ann Arbor, Mich.) according to manufacturer's instructions. In brief, approximately 10-14 grams of liver tissues were finely minced using a pair of scissors, and washed repeatedly with ice-cold PBS, followed by Mito Isolation Buffer. The minced tissues were homogenized with 30 ml Mito Homogenization Buffer in 40 ml dounce homogenizer and a smooth glass grinder. The homogenate was split into two clean 30 ml polycarbonate tubes and centrifuged at 1,000×g, 4° C., for 3 minutes. The supernatant was subjected to further centrifugation at 10,000×g, 4° C., for 10 minutes. The supernatant was discarded and mitochondrial pellet was suspended in Mito Isolation Buffer using a glass stirring rod and stored on ice until use. Protein concentration of mitochondria was determined using a bicinchoninic acid protein assay kit (Thermo Scientific, Waltham, Mass.).
Oxygen consumption was monitored as essentially described by Will et al., “Analysis of mitochondrial function using phosphorescent oxygen-sensitive probes,” Nature Protocols Vol. 1(6) (2006) 2563. Briefly, isolated mitochondria (50 μg mitochondrial proteins/state 3 (S3) of mitochondrial respiration for inhibitor identification, 100 μg/S2 for uncoupler identification) were incubated with compounds in 25 μl of Measurement Buffer (MB: 250 mM sucrose, 15 mM KCl, 1 mM EGTA, 5 mM MgCl2, 30 mM K2HPO4, pH 7.4) including 1% DMSO on ice for 1 hour, then mixed with 25 μl of substrate mixture including an oxygen-sensitive phosphorescent dye (MitoXpress Xtra, Agilent, Santa Clara, Calif.), glutamate (25 mM, G1626, Sigma, St. Louis, Mo.), malate (25 mM, M6413, Sigma), ADP (3.3 mM, A2754, Sigma, only for S3 of mitochondrial respiration), Fatty acid free BSA (0.1%, A0281, Sigma), and a complex II-specific inhibitor TTFA (2 μM, T27006, Sigma for the assessment of complex I-mitochondrial respiration with glutamate/malate) in a black wall/clear bottom 384-well plate. The mixtures were covered with HS mineral oil (Agilent) using the Viaflo 384-channel pipette (Integra, Hudson, N.H.). Oxygen consumption was measured for 30 min at 30° C. using a spectrofluorimeter (FLUOstar Omega, BMG Labtech, Cary, N.C.). In S3, DMSO vehicle control and antimycin A (10 μM) were used to define 0% and 100% inhibition. In S2, DMSO vehicle and FCCP (0.5-1 μM) was used to define 0% and 100% uncoupling, respectively. Area under curve typically in a range of 0-12 min (S3) or 0-24 min (S2) was used for calculations. IC50 or UC50 (uncoupling concentration), a concentration that causes 50% of inhibition or maximal (uncoupling) activation of oxygen consumption, was used to evaluate experimental quality. Data were presented as μM (per 50 μg (S3) or 100 μg (S2) mitochondrial proteins). Compounds with IC50: <100 μM (S3) and/or UC50: <200 μM (S2) were considered as high-risk on mitochondrial toxicity. Compounds with 25-50% changes in inhibition and/or uncoupling were categorized as medium-risk, since compounds with >25% changes are considered as responders.
Toxicity associated with mitochondrial dysfunction has presented a problem for promising potential antibiotics as we as other types of therapeutics. The mitochondrial oxygen consumption rate (OCR) assay is considered a reliable indicator of potential internal organ toxicity issues that may occur with powerful antibiotics. The carboxylate compounds of the invention show unexpected lower toxicity than prior art “glycine nitrile” arylomycin analogs (see, e.g., WO 2018/149419) in the mitochondrial oxygen consumption rate (OCR) assay.

Where [6] appears, read: ATCC17978, 22 h, read-out: A. baumanii 17978 Serum MIC.
Where [7] appears, read: ATCC17978, 22 h, read-out: Acinetobacter baumanii 17978 Serum MIC.
Where [8] appears, read: ATCC700603, 50% v/v mouse serum in Mueller Hinton II cation adjusted Broth, 35° C., 22 hours, Table 4.
Where [9] appears, read: ATCC17978, 50% v/v mouse serum in Mueller Hinton II cation adjusted Broth, 35° C., 22 hours, Table 4, read-out: A. baumanii 17978 Serum MIC.
Where [10] appears, read: ATCC17978, 50% v/v mouse serum in Mueller Hinton II cation adjusted Broth, 35° C., 22 hours, Table 5, read-out: Acinetobacter baumanii 17978 Serum MIC.
[11] abbreviates: ATCC25922, 50% v/v mouse serum in Mueller Hinton II cation adjusted Broth, 35° C., 22 hours, Table 4.
Where [12] appears, read: PA01, 50% v/v mouse serum in Mueller Hinton II cation adjusted Broth, 35° C., 22 hours, Table 4.

The MIC is the lowest concentration that inhibits growth of the organism. As usually defined, the pIC50 is the IC50 on a negative log10 scale, so that one unit is a factor of ten. Low values mean a high IC50, high ones a low IC50.

pIC50: −log10 of the molar value. Values after ≈ are worked out from the molar mass of the structure shown. Like-named read-outs stand apart in the source and are kept apart here.

Regarding `Cc1nc(-c2ccc(C(C)(C)C)cc2)nc(C)c1C(=O)N[C@@H](CCN)C(=O)N(C)[C@@H]1C(=O)N[C@@H](C)C(=O)N[C@H](C(=O)O)Cc2ccc(OC[C@H](O)CN)c(c2)-c2cc1cc(OC[C@H](O)CN)c2O` [Example 19, (8S,11S,14S)-18-hydroxy-11-methyl-14-[methyl-[(2S)-4-amino-2-[[2-(4-tert-butylphenyl)-4,6-dimethyl-pyrimidine-5-carbonyl]amino]-butanoyl]amino]-10,13-dioxo-3,17-bis[(2R)-3-amino-2-hydroxy-propoxyl]-9,12-diazatricyclo-[13.3.1.12,6]icosa-1(18),2(20),3,5,15(19), 16-hexaene-8-carboxylic acid], the MIC in experiment [1] (ATCC700603, 22 h) turned out to be 0.25 µM (≈ 0.236 µg/mL); in experiment [2] (setting [6]), 16 µM (≈ 15.1 µg/mL); in experiment [2] (setting [7]), 16 µM (≈ 15.1 µg/mL); in experiment [3] (ATCC25922, 22 h), 0.25 µM (≈ 0.236 µg/mL); in experiment [4] (PA01, 22 h) it was 8 µM (≈ 7.54 µg/mL). The same compound showed a pIC50 in experiment [5] of less than 3.60.
For `Cc1nc(-c2ccc(OC(C)C)cc2)ncc1C(=O)N[C@@H](CCN)C(=O)N(C)[C@@H]1C(=O)N[C@@H](C)C(=O)N[C@H](C(=O)O)Cc2ccc(OC[C@H](O)CN)c(c2)-c2cc1cc(OC[C@H](O)CN)c2O` [Example 20, (8S,11S,14S)-18-hydroxy-11-methyl-14-[methyl-[(2S)-4-amino-2-[[2-(4-isopropoxyphenyl)-4-methyl-pyrimidine-5-carbonyl]amino]-butanoyl]amino]-10,13-dioxo-3,17-bis[(2R)-3-amino-2-hydroxy-propoxy]-9,12-diazatricyclo-[13.3.1.12,6]icosa-1(18),2(20),3,5,15(19), 16-hexaene-8-carboxylic acid], the MIC in experiment [1] (ATCC700603, 22 h) stood at 0.46 µM (≈ 0.428 µg/mL); in experiment [2] (setting [6]), 16 µM (≈ 14.9 µg/mL); in experiment [2] (setting [7]) it was 16 µM (≈ 14.9 µg/mL); in experiment [3] (ATCC25922, 22 h) it was 0.58 µM (≈ 0.539 µg/mL); in experiment [4] (PA01, 22 h) it was 64 µM (≈ 59.5 µg/mL). The negative-log IC50 (pIC50) in experiment [5] is less than 3.60.
Consider `Cc1nc(-c2ccc(C(C)(C)C)cc2)ncc1C(=O)N[C@@H](CCN)C(=O)N(C)[C@@H]1C(=O)N[C@@H](C)C(=O)N[C@H](C(=O)O)Cc2ccc(OC[C@H](O)CN)c(c2)-c2cc1cc(OC[C@H](O)CN)c2O` [Example 23, (8S,11S,14S)-18-hydroxy-11-methyl-14-[methyl-[(2S)-4-amino-2-[[2-(4-tert-butylphenyl)-4-methyl-pyrimidine-5-carbonyl]amino]-butanoyl]amino]-10,13-dioxo-3,17-bis[(2R)-3-amino-2-hydroxy-propoxy]-9,12-diazatricyclo-[13.3.1.12,6]icosa-1(18),2(20),3,5,15(19), 16-hexaene-8-carboxylic acid], for which the minimum inhibitory concentration (MIC) in experiment [1] (setting [8]) was 0.16 µM (≈ 0.148 µg/mL); in experiment [2] (setting [9]) it was 8 µM (≈ 7.42 µg/mL); in experiment [2] (setting [10]) it was 8 µM (≈ 7.42 µg/mL); in experiment [3] (setting [11]), 0.22 µM (≈ 0.204 µg/mL); in experiment [4] (setting [12]), 16 µM (≈ 14.8 µg/mL). The same compound had a pIC50 in experiment [5] of 4.66.
For `Cc1nc(-c2ccc(C(C)(C)C)cc2)nc(N)c1C(=O)N[C@@H](CCN)C(=O)N(C)[C@@H]1C(=O)N[C@@H](C)C(=O)N[C@H](C(=O)O)Cc2ccc(OC[C@H](O)CN)c(c2)-c2cc1cc(OC[C@H](O)CN)c2O` [Example 24, (8S,11S,14S)-18-hydroxy-11-methyl-14-[methyl-[(2S)-4-amino-2-[[4-amino-2-(4-tert-butylphenyl)-6-methyl-pyrimidine-5-carbonyl]amino]-butanoyl]amino]-10,13-dioxo-3,17-bis[(2R)-3-amino-2-hydroxy-propoxy]-9,12-diazatricyclo-[13.3.1.12,6]icosa-1(18),2(20),3,5,15(19), 16-hexaene-8-carboxylic acid], the MIC in experiment [1] (setting [8]) is 0.25 µM (≈ 0.236 µg/mL); in experiment [2] (setting [9]) it was 16 µM (≈ 15.1 µg/mL); in experiment [2] (setting [10]), 16 µM (≈ 15.1 µg/mL); in experiment [3] (setting [11]), 0.5 µM (≈ 0.472 µg/mL); in experiment [4] (setting [12]) it was 16 µM (≈ 15.1 µg/mL). Also, the negative-log IC50 (pIC50) in experiment [5] was less than 3.70.
With `Cc1nc(-c2ccc(OCCC(C)(C)C)cc2)ncc1C(=O)N[C@@H](CCN)C(=O)N(C)[C@@H]1C(=O)N[C@@H](C)C(=O)N[C@H](C(=O)O)Cc2ccc(OC[C@H](O)CN)c(c2)-c2cc1cc(OC[C@H](O)CN)c2O` [Example 27, (8S,11S,14S)-18-hydroxy-11-methyl-14-[methyl-[(2S)-4-amino-2-[[2-[4-(3,3-dimethylbutoxy)-phenyl]-4-methyl-pyrimidine-5-carbonyl]amino]-butanoyl]amino]-10,13-dioxo-3,17-bis[(2R)-3-amino-2-hydroxy-propoxy]-9,12-diazatricyclo-[13.3.1.12,6]icosa-1(18),2(20),3,5,15(19), 16-hexaene-8-carboxylic acid], the minimum inhibitory concentration (MIC) in experiment [1] (setting [8]) was found to be 0.25 µM (≈ 0.243 µg/mL); in experiment [2] (setting [9]) it was 12 µM (≈ 11.7 µg/mL); in experiment [2] (setting [10]), 12 µM (≈ 11.7 µg/mL); in experiment [3] (setting [11]), 0.25 µM (≈ 0.243 µg/mL); in experiment [4] (setting [12]), 8 µM (≈ 7.78 µg/mL). The same compound had a pIC50 in experiment [5] of 4.70.
For `Cc1nc(-c2ccc(C3(C)CC3)cc2)ncc1C(=O)N[C@@H](CCN)C(=O)N(C)[C@@H]1C(=O)N[C@@H](C)C(=O)N[C@H](C(=O)O)Cc2ccc(OC[C@H](O)CN)c(c2)-c2cc1cc(OC[C@H](O)CN)c2O` [Example 28, (8S,11S,14S)-18-hydroxy-11-methyl-14-[methyl-[(2S)-4-amino-2-[[4-methyl-2-[4-(1-methylcyclo-propyl)phenyl]-pyrimidine-5-carbonyl]amino]-butanoyl]amino]-10,13-dioxo-3,17-bis[(2R)-3-amino-2-hydroxy-propoxy]-9,12-diazatricyclo-[13.3.1.12,6]icosa-1(18),2(20),3,5,15(19), 16-hexaene-8-carboxylic acid], the MIC in experiment [1] (setting [8]) stood at 0.17 µM (≈ 0.157 µg/mL); in experiment [2] (setting [9]) it was 11 µM (≈ 10.2 µg/mL); in experiment [2] (setting [10]), 11 µM (≈ 10.2 µg/mL); in experiment [3] (setting [11]), 0.21 µM (≈ 0.194 µg/mL); in experiment [4] (setting [12]) it was 43 µM (≈ 39.8 µg/mL). The compound also showed a pIC50 in experiment [5] of less than 3.60.
